Laboratory results published in patent US5252495A, “Immunoassay for physostigmine” (priority 1992, dated 1993).
Counter-ions that a name gives are not always drawn.

Tested on: not given
Assay: not given
Conditions: alkaline solutions; cited from earlier work

Molecule | stability in alkaline solutions
CNC(=O)Oc1ccc2c(c1)[C@]1(C)CCN(C)[C@@H]1N2C [Physostigmine salts] | unstable in alkaline solutions

Same assay, conditions: cited from earlier work

Molecule | solubility in water
CNC(=O)Oc1ccc2c(c1)[C@]1(C)CCN(C)[C@@H]1N2C [Physostigmine salts] | soluble in water

Same assay, conditions: rate enhanced in the presence of moisture; cited from earlier work

Molecule | color change upon exposure to air and light
CNC(=O)Oc1ccc2c(c1)[C@]1(C)CCN(C)[C@@H]1N2C [Physostigmine salts] | gradually turn red upon exposure to air and light

Biological target: Antibody from Mannich Immunogen
Assay: RIA cross-reactivity: competition with labeled physostigmine for antibody from Mannich immunogen
Type: binding, New Zealand white rabbits
Conditions: 1:100, max 1000 ng tested
Experimental: (§1) Antibodies to the physostigmine-BSA immunogen were produced by injecting male New Zealand white rabbits with immunogens formed by either method. Prior to injection, the immunogen was emulsified with an equal volume of complete Freund's adjuvant, purchased from Difco Laboratories of Detroit, Mich. The initial immunization consisted of 0.8 mg of protein injected intracutaneously in multiple dorsal sites of the rabbits. Booster injections containing 0.8 mg of immunogen and incomplete Freund's adjuvant were administered every two months for the next six months. Antisera was collected one week after each booster injection from the central ear vein. The blood was allowed to clot at room temperature and then centrifuged at 1500×g for 15 minutes. The separated serum was stored frozen at -20° C. until assayed for the presence of physostigmine antibody.
(§2) In the assay procedure ^3 H-Physostigmine having specificity of 19.0 Ci/mmole and purchased from the Amersham Corp. of Arlington Heights, Ill., was used as tracer. […] Both standard and sample tubes were always analyzed in duplicate. The assay was carried out according to the protocol shown in Table 1 with the reagents were added to the assay tubes in the order shown.
(§3) According to the protocol for the RIA of the present invention, after the addition of antisera, the contents of the tubes were mixed and incubated for 3 hours at 4° C. The antigen which bound to the antibody was separated by adding saturated ammonium sulfate and centrifuging at 2500×g for 15 minutes. After aspiration of the supernatant, the precipitate was washed one time with 50% saturated ammonium sulfate; then the mixture was centrifuged and the supernatent removed. The precipitate was dissolved in 1.0 ml of distilled water, and the solution was transferred to a scintillation vial containing 10.0 ml of acquasol 2.
(§4) The radioactivity which was bound to the antibody was determined in counts per minute with a Beckman LS-3133P Liquid Scintillation Counter. […] The concentration of physostigmine is plotted on the horizontal axis, while the percent inhibition of binding radioactively labeled is plotted on the vertical axis. […] Concentrations of physostigmine in unknown samples were determined according to conventional calculations from the standard curve.
(§5) Competition of the compounds with labeled physostigmine (5000 dpm) for antibody binding sites was determined arbitrarily at 50% inhibition of the physostigmine on the standard curve. Each compound was tested for cross-reactivity with the antibody. The maximum concentration of each compound tested was 1000 ng.

Molecule | IC50 (50% inhibition of binding of 3H-physostigmine)
CN1CCC2(C)c3cc4nc5c(=O)c6c(cc-5oc4cc3N(C)C12)N(C)C1N(C)CCC61C (centres unmarked) [Eserine blue] | 575 ng
CN1CC[C@@]2(C)c3cc(O)ccc3N(C)[C@@H]12 [Eseroline, eseroline] | 200 ng
COc1ccc2c(c1)c(CC(=O)O)c(C)n2C(=O)c1ccc(Cl)cc1 [Indomethacin] | > 1000 ng
COc1ccc2[nH]cc(CCNC(C)=O)c2c1 [Melatonin] | > 1000 ng
CN(C)C(=O)Oc1cccc([N+](C)(C)C)c1 [Neostigmine] | > 1000 ng
C[n+]1ccccc1C=NO [Paralidoxime] | > 1000 ng
CN(C)C(=O)Oc1ccc[n+](C)c1 [Pyridostigmine] | > 1000 ng
CN1CC[C@@]2(C)C3=CC(=O)C(=O)C=C3N(C)[C@@H]12 [Rubreserine] | 248 ng
NCCc1c[nH]c2ccc(O)cc12 [Serotonin] | > 1000 ng
Eserine brown | 625 ng

Biological target: Antibody from Diazo-coupled Immunogen
Assay: RIA cross-reactivity: competition with labeled physostigmine for antibody from diazo-coupled immunogen
Type: binding, New Zealand white rabbits
Conditions: 1:150, max 1000 ng tested
Experimental: as §1
as §2, with “tracer. The dilution of tracer (5000 dpm), antibody (1:150) and physostigmine standards (100-10,000 pg) were made using 0.01M phosphate buffer containing 150 mM sodium chloride with a pH of 7.4.” for “tracer.”
as §3, §4, §5

Molecule | IC50 (50% inhibition of binding of 3H-physostigmine)
CN1CCC2(C)c3cc4nc5c(=O)c6c(cc-5oc4cc3N(C)C12)N(C)C1N(C)CCC61C (centres unmarked) [Eserine blue] | 600 ng
CN1CC[C@@]2(C)c3cc(O)ccc3N(C)[C@@H]12 [Eseroline, eseroline] | 200 ng
COc1ccc2c(c1)c(CC(=O)O)c(C)n2C(=O)c1ccc(Cl)cc1 [Indomethacin] | > 1000 ng
COc1ccc2[nH]cc(CCNC(C)=O)c2c1 [Melatonin] | > 1000 ng
CN(C)C(=O)Oc1cccc([N+](C)(C)C)c1 [Neostigmine] | > 1000 ng
C[n+]1ccccc1C=NO [Paralidoxime] | > 1000 ng
CN(C)C(=O)Oc1ccc[n+](C)c1 [Pyridostigmine] | > 1000 ng
CN1CC[C@@]2(C)C3=CC(=O)C(=O)C=C3N(C)[C@@H]12 [Rubreserine] | 224 ng
NCCc1c[nH]c2ccc(O)cc12 [Serotonin] | > 1000 ng
Eserine brown | 550 ng

Tested on: antibodies to physostigmine
Assay: Specificity of the antibodies to physostigmine (both antibodies; RIA, HPLC-RIA)
Type: binding, New Zealand white rabbits
Conditions: not given
Experimental: as §1
In the assay procedure ^3 H-Physostigmine having specificity of 19.0 Ci/mmole and purchased from the Amersham Corp. of Arlington Heights, Ill., was used as tracer. The dilution of tracer (5000 dpm), antibody (1:150) and physostigmine standards (100-10,000 pg) were made using 0.01M phosphate buffer containing 150 mM sodium chloride with a pH of 7.4. […] Both standard and sample tubes were always analyzed in duplicate. […]
The HPLC system consisted of Waters Associates liquid chromatograph equipped with a 6000 A solvent delivery system, a Model 441 absorbance detector, a U6K injector, a model 720 system controller, an Omni Scribe recorder (Houston Instruments, Houston, Tex.), a model cygnet Fraction collector (ISCO, Lincoln, Nebr.).
High pressure liquid chromatography (HPLC) was performed using a model C18 u Bondapak column (30 cm×0.39 cm. lid) (waters). The Uv detector was fixed at 245 nm with range set at 0.005 absorbance units full scale and flow rate of the mobile phase adjusted to 2 ml/min. […]
The column was operated at ambient temperature. […] Each residue was then reconstituted using the assay buffer and was analyzed for physostigmine by the RIA. […]

Molecule | amount required to displace radioactive physostigmine from the antibodies, relative to physostigmine
CN1CC[C@@]2(C)c3cc(O)ccc3N(C)[C@@H]12 [Eseroline, eseroline] | ~150 times

Same assay, conditions: RIA

Molecule | binding to the antibodies
CN(C)C(=O)Oc1cccc([N+](C)(C)C)c1 [Neostigmine] | did not bind to the antibodies
CN(C)C(=O)Oc1ccc[n+](C)c1 [Pyridostigmine] | did not bind to the antibodies
